PubChem BioAssay AID248 (DTP/NCI, 2004)
Where “and” joins values, the source holds several entries; their conditions need not be identical. Equal entries are not always repeated. Inconclusive results and toxic doses are left out. Rule as the data show it: active = T/C of 150% or more; inactive = T/C below 125%.

System: L1210 leukemia ip in BDF1 mice, survival T/C
Assay: NCI In Vivo Anticancer Drug Screen. Data for tumor model L1210 Leukemia (intraperitoneal) in B6D2F1 (BDF1) mice
Conditions: endpoint: mean survival time, higher = longer survival
Method in brief: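 Each compound was tested against a transplantable tumor grown in mice. The endpoint was survival, with treated animals benchmarked against vehicle controls as a simple ratio.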

[1] = dose: 100.0 mg/kg/injection, schedule: Q01DX009 (ip), vehicle: Klucel (hydroxypropylcellulose) (HPC)
[2] = dose: 100.0 mg/kg/injection, schedule: Q04DX002 (ip), vehicle: saline with Tween-80
[3] = dose: 200.0 mg/kg/injection, schedule: Q04DX002 (ip), vehicle: saline with Tween-80
[4] = dose: 400.0 mg/kg/injection, schedule: Q04DX002 (ip), vehicle: saline with Tween-80
[5] = dose: 100.0 mg/kg/injection, schedule: Q04DX003 (ip), vehicle: Klucel (hydroxypropylcellulose) (HPC)
[6] = dose: 200.0 mg/kg/injection, schedule: Q01DX009 (ip), vehicle: Klucel (hydroxypropylcellulose) (HPC)
[7] = dose: 200.0 mg/kg/injection, schedule: Q04DX003 (ip), vehicle: Klucel (hydroxypropylcellulose) (HPC)
[8] = dose: 400.0 mg/kg/injection, schedule: Q01DX009 (ip), vehicle: Klucel (hydroxypropylcellulose) (HPC)
[9] = dose: 400.0 mg/kg/injection, schedule: Q04DX003 (ip), vehicle: Klucel (hydroxypropylcellulose) (HPC)
[10] = dose: 100.0 mg/kg/injection, schedule: Q01DX001 (ip), vehicle: Klucel (hydroxypropylcellulose) (HPC)
[11] = dose: 200.0 mg/kg/injection, schedule: Q01DX001 (ip), vehicle: Klucel (hydroxypropylcellulose) (HPC)
[12] = dose: 400.0 mg/kg/injection, schedule: Q01DX001 (ip), vehicle: Klucel (hydroxypropylcellulose) (HPC)

Measured: T/C

COC(=O)c1[nH]cnc1/N=N\N(CCF)CCF
inactive: dose: 1.5 mg/kg/injection, schedule: Q01DX009 (ip), vehicle: carboxymethylcellulose (CMC) 120 % of control | dose: 3.0 mg/kg/injection, schedule: Q01DX009 (ip), vehicle: carboxymethylcellulose (CMC) 110 % of control | dose: 4.5 mg/kg/injection, schedule: Q01DX001 (ip), vehicle: carboxymethylcellulose (CMC) 102 % of control | dose: 5.0 mg/kg/injection, schedule: Q01DX001 (ip), vehicle: carboxymethylcellulose (CMC) 101 % of control | dose: 9.0 mg/kg/injection, schedule: Q01DX001 (ip), vehicle: carboxymethylcellulose (CMC) 112 % of control | dose: 10.0 mg/kg/injection, schedule: Q01DX001 (ip), vehicle: carboxymethylcellulose (CMC) 115 % of control | dose: 12.0 mg/kg/injection, schedule: Q01DX009 (ip), vehicle: carboxymethylcellulose (CMC) 91 % of control | dose: 18.0 mg/kg/injection, schedule: Q01DX009 (ip), vehicle: carboxymethylcellulose (CMC) 95 % of control | dose: 40.0 mg/kg/injection, schedule: Q01DX009 (ip), vehicle: carboxymethylcellulose (CMC) 97 % of control
active: dose: 14.4 mg/kg/injection, schedule: Q01DX009 (ip), vehicle: carboxymethylcellulose (CMC) 169 % of control | dose: 53.0 mg/kg/injection, schedule: Q01DX001 (ip), vehicle: carboxymethylcellulose (CMC) 154 % of control | dose: 80.0 mg/kg/injection, schedule: Q01DX001 (ip), vehicle: carboxymethylcellulose (CMC) 171 % of control

O=C1C=C(NCCc2cnc[nH]2)c2ccccc2C1=O
inactive: dose: 50.0 mg/kg/injection, schedule: Q01DX009 (ip), vehicle: Klucel (hydroxypropylcellulose) (HPC) 92 % of control | [1] 103 % of control

O=C(Nc1ccc(F)c(Cl)c1)Oc1ccc(Br)cc1Br
inactive: [2] 100 % of control | [3] 107 % of control | [4] 100 % of control

C[N+]1(C2CCC3CCCC2C3=O)CCCC1 (stereo not drawn)
inactive: dose: 75.0 mg/kg/injection, schedule: Q01DX001 (ip), vehicle: saline 98 % of control | dose: 150.0 mg/kg/injection, schedule: Q01DX001 (ip), vehicle: saline 106 % of control

COC(=N)c1ccc(C)c(I)c1
inactive: dose: 100.0 mg/kg/injection, schedule: Q04DX002 (ip), vehicle: Klucel (hydroxypropylcellulose) (HPC) 91 % of control | dose: 200.0 mg/kg/injection, schedule: Q04DX002 (ip), vehicle: Klucel (hydroxypropylcellulose) (HPC) 98 % of control | dose: 400.0 mg/kg/injection, schedule: Q04DX002 (ip), vehicle: Klucel (hydroxypropylcellulose) (HPC) 94 % of control

CC(=O)Nc1ccc(N=Nc2ccccc2)cc1F
inactive: [1] 94 % of control | [5] 98 % of control | [6] 97 % of control | [7] 94 % of control | [8] 97 % of control | [9] 91 % of control

CN(C)c1ccc(C=C(c2ccc(N)cc2)c2ccc(N)cc2)cc1
inactive: dose: 100.0 mg/kg/injection, schedule: Q04DX003 (ip), vehicle: saline with Tween-80 93 % of control | dose: 200.0 mg/kg/injection, schedule: Q04DX003 (ip), vehicle: saline with Tween-80 96 % of control | dose: 400.0 mg/kg/injection, schedule: Q04DX003 (ip), vehicle: saline with Tween-80 96 % of control

CCCCN(CCCC)CCCNC(=S)Nc1ccccc1
inactive: [1] 94 % of control | [6] 100 % of control

CC(/C(=N\N=C(N)N)c1ccccc1)N(C)C (stereo not drawn)
inactive: dose: 15.0 mg/kg/injection, schedule: Q01DX Z (ip), vehicle: methylcellulose (MC) 94 % of control | dose: 30.0 mg/kg/injection, schedule: Q01DX Z (ip), vehicle: methylcellulose (MC) 108 % of control | dose: 50.0 mg/kg/injection, schedule: Q01DX Z (oral), vehicle: methylcellulose (MC) 100 % of control | dose: 60.0 mg/kg/injection, schedule: Q01DX Z (ip), vehicle: methylcellulose (MC) 95 % of control | dose: 100.0 mg/kg/injection, schedule: Q01DX Z (oral), vehicle: methylcellulose (MC) 86 % of control | dose: 120.0 mg/kg/injection, schedule: Q01DX Z (ip), vehicle: methylcellulose (MC) 88 % of control

COC(C)(C)CN(CCCNC(=S)Nc1ccccc1)C(=S)Nc1ccccc1
inactive: dose: 50.0 mg/kg/injection, schedule: Q01DX001 (ip), vehicle: carboxymethylcellulose (CMC) 103 % of control | dose: 100.0 mg/kg/injection, schedule: Q01DX001 (ip), vehicle: carboxymethylcellulose (CMC) 97 % of control | dose: 200.0 mg/kg/injection, schedule: Q01DX001 (ip), vehicle: carboxymethylcellulose (CMC) 86 % of control | dose: 400.0 mg/kg/injection, schedule: Q01DX001 (ip), vehicle: carboxymethylcellulose (CMC) 93 % of control

O=C(Nc1cccc2ccccc12)c1ccc(Cl)c(Cl)c1
inactive: [1] 104 % of control | [6] 100 % of control | [8] 98 % of control

CCOc1ccc(-n2c(O)c(N=Nc3ccc(Cl)cc3)c(=O)n(-c3ccccc3)c2=S)cc1
inactive: [10] 104 % of control | [11] 105 % of control | [12] 94 % of control

CSc1ccc(NC(=O)c2ccc(Cl)cc2Cl)cc1
inactive: dose: 100.0 mg/kg/injection, schedule: Q01DX001 (ip), vehicle: saline with Tween-80 89 % of control | dose: 100.0 mg/kg/injection, schedule: Q01DX009 (ip), vehicle: saline + alcohol 95 % of control and 108 % of control | [2] 96 % of control and 108 % of control | dose: 200.0 mg/kg/injection, schedule: Q01DX001 (ip), vehicle: saline with Tween-80 89 % of control | dose: 200.0 mg/kg/injection, schedule: Q01DX009 (ip), vehicle: saline + alcohol 97 % of control and 106 % of control | [3] 93 % of control and 97 % of control | dose: 400.0 mg/kg/injection, schedule: Q01DX001 (ip), vehicle: saline with Tween-80 90 % of control | [4] 93 % of control and 97 % of control

O=C(CCc1cccnc1)Nc1ccccc1
inactive: [5] 102 % of control | [7] 100 % of control | [9] 94 % of control

C(=C(\C[P+](c1ccccc1)(c1ccccc1)c1ccccc1)c1ccccc1)/c1ccccc1
inactive: dose: 5.0 mg/kg/injection, schedule: Q01DX009 (ip), vehicle: saline with Tween-80 97 % of control | dose: 5.0 mg/kg/injection, schedule: Q04DX003 (ip), vehicle: saline with Tween-80 93 % of control | dose: 20.0 mg/kg/injection, schedule: Q04DX003 (ip), vehicle: saline with Tween-80 86 % of control

O=C(O)C1C2CCC3C(C(=O)O)C3C21 (stereo not drawn)
inactive: [1] 100 % of control | [5] 97 % of control | [6] 97 % of control | [7] 101 % of control | [8] 92 % of control | [9] 98 % of control

CCC(C)(CC)OC(N)=O
inactive: dose: 12.5 mg/kg/injection, schedule: Q01DX009 (ip), vehicle: saline with Tween-80 100 % of control | dose: 25.0 mg/kg/injection, schedule: Q01DX009 (ip), vehicle: saline with Tween-80 102 % of control | dose: 25.0 mg/kg/injection, schedule: Q04DX003 (ip), vehicle: saline 100 % of control | dose: 50.0 mg/kg/injection, schedule: Q01DX009 (ip), vehicle: saline with Tween-80 94 % of control | dose: 50.0 mg/kg/injection, schedule: Q04DX003 (ip), vehicle: saline 100 % of control | dose: 100.0 mg/kg/injection, schedule: Q01DX009 (ip), vehicle: saline with Tween-80 105 % of control | dose: 100.0 mg/kg/injection, schedule: Q04DX003 (ip), vehicle: saline 102 % of control | dose: 200.0 mg/kg/injection, schedule: Q01DX009 (ip), vehicle: saline with Tween-80 93 % of control | dose: 200.0 mg/kg/injection, schedule: Q04DX003 (ip), vehicle: saline 96 % of control

CC(=O)NC1=C(c2ccccc2)C(=O)c2ccccc21
inactive: dose: 45.0 mg/kg/injection, schedule: Q01DX001 (ip), vehicle: Klucel (hydroxypropylcellulose) (HPC) 107 % of control | dose: 65.0 mg/kg/injection, schedule: Q01DX001 (ip), vehicle: Klucel (hydroxypropylcellulose) (HPC) 96 % of control | [10] 100 % of control and 104 % of control | [5] 107 % of control | dose: 150.0 mg/kg/injection, schedule: Q01DX001 (ip), vehicle: Klucel (hydroxypropylcellulose) (HPC) 96 % of control | [11] 96 % of control and 117 % of control and 91 % of control | [7] 107 % of control | dose: 300.0 mg/kg/injection, schedule: Q01DX001 (ip), vehicle: Klucel (hydroxypropylcellulose) (HPC) 104 % of control | [12] 97 % of control and 102 % of control and 103 % of control | [9] 97 % of control
